Among the data in US20240376094A2, “SELECTIVE BCL-XL PROTAC COMPOUNDS AND METHODS OF USE” (Les Laboratoires Servier, priority 2021, published 2024) are IC50 and Emax values, retold here.

One may read the IC50 as the concentration needed to halve the response being measured.

SMILES strings stand for the structures.

For this test, the system named is NCI-H1650. Briefly: CellTiter-Glo 3D proliferation assay, NCI-H1650 spheroids. Type of test: cell-based. The conditions noted are these: Homo sapiens, NCI-H1650, 120 h, 5 days; for Emax: read-out: NCI-H1650 Span (Amax). The method, boiled down: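 Both lines grown in RPMI-1640 + 10% FBS. COR-L105 plated flat at 1,000 cells/well overnight; NCI-H1650 grown as spheroids, 3,000 cells/well, 72 h. Compounds at 0.508 nM-10 μM final for 5 days, 37° C. ATP read by CellTiter-Glo (3D version for spheroids); IC50 from variable-slope fit normalized to untreated cells.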
(In ATP-based viability assays light output follows the ATP content of the culture.)

Consider `Cc1ncsc1-c1ccc([C@H](C)NC(=O)[C@@H]2C[C@@H](O)CN2C(=O)[C@@H](NC(=O)CCCCCCCCCCC(=O)N2CCN(CCOC34CC5(C)CC(C)(CC(Cn6ncc(-c7ccc(N8CCCc9c8nnc(Nc8nc%10ccccc%10s8)c9C)nc7C(=O)O)c6C)(C5)C3)C4)CC2)C(C)(C)C)cc1` [Example 47, 6-(3-(benzo[d]thiazol-2-ylamino)-4-methyl-6,7-dihydropyrido [2,3-c]pyridazin-8(5H)-yl)-3-(1-(((1r,3s,5R,7S)-3-(2-(4-(12-(((S)-1-((2S,4R)-4-hydroxy-2-(((S)-1-(4-(4-methylthiazol-5-yl)phenyl)ethyl)carbamoyl)pyrrolidin-1-yl)-3,3-dimethyl-1-oxobutan-2-yl)amino)-12-oxododecanoyl)piperazin-1-yl)ethoxy)-5,7-dimethyladamantan-1-yl)methyl)-5-methyl-1H-pyrazol-4-yl)picolinic acid], for which the IC50 is 12.5 nM and the Emax is 97.1%.

Take `Cc1ncsc1-c1ccc([C@H](C)NC(=O)[C@@H]2C[C@@H](O)CN2C(=O)[C@@H](NC(=O)CCCCCCCCCCCN2CCN(CC#Cc3ccc(OCCCc4sc(N5CCCc6c5nnc(Nc5nc7ccccc7s5)c6C)nc4C(=O)O)c(F)c3)CC2)C(C)(C)C)cc1` [Example 51, 2-(3-(benzo[d]thiazol-2-ylamino)-4-methyl-6,7-dihydropyrido [2,3-c]pyridazin-8(5H)-yl)-5-(3-(2-fluoro-4-(3-(4-(12-(((S)-1-((2S,4R)-4-hydroxy-2-(((S)-1-(4-(4-methylthiazol-5-yl)phenyl)ethyl)carbamoyl)pyrrolidin-1-yl)-3,3-dimethyl-1-oxobutan-2-yl)amino)-12-oxododecyl)piperazin-1-yl)prop-1-yn-1-yl)phenoxy)propyl)thiazole-4-carboxylic acid]: the IC50 is 4.23 nM and the Emax turned out to be 90.8%.
